Measured values reported in patent publication EP0538016A1, “MRSA active 2-phenyl-carbapenems” (MERCK & CO. INC., priority 1991, dated 1993).

Tested on: MRSA
Experiment: Activity against a strain of MRSA pathogen, relative to thienamycin
Assay type: cell-based, methicillin resistant Staphylococcus aureus
Conditions: relative to the effectiveness of thienamycin, arbitrarily assigned an effectiveness of 1
Description: The activity of the following compounds was measured against a strain of MRSA pathogen and reported as relative to the effectiveness of thienamycin, which is arbitrarily assigned an effectiveness of 1. Regarding this measure of activity, reference is made to R. Guthikonda, et al., J. Med. Chem., 30, 871 (1987). [drawing 76]

Row | Structure (SMILES) | ANTI-INFECTIVE ACTIVITY MRSA
1 | C[C@@H](O)[C@H]1C(=O)N2C(C(=O)O)=C(c3cc([S+](C)[O-])cc([S+](C)[O-])c3)C[C@H]12 (stereo partly drawn) [R^a1=(S→O)Me, R^a2=H, R^a3=(S→O)Me] | 1.2
2 | C[C@@H](O)[C@H]1C(=O)N2C(C(=O)O)=C(c3cc([S+](C)[O-])cc(S(C)(=O)=O)c3)C[C@H]12 (stereo partly drawn) [R^a1=(S→O)Me, R^a2=H, R^a3=[drawing]] | 3.7
3 | CC(O)C1C(=O)N2C(C(=O)O)=C(c3cc(Br)cc(CO)c3)CC12 (stereo not drawn) [R^a1=Br, R^a2=H, R^a3=CH2OH, reference compound] | 8.7
4 | CC(O)C1C(=O)N2C(C(=O)O)=C(c3cc(Br)cc(C=O)c3)CC12 [R^a1=Br, R^a2=H, R^a3=HC=O, sodium (5R,6S)-2-[(3-aldehydo)-(5-bromo)phenyl]-6-[(1R)-1-hydroxyethyl]carbapen-2-em-3-carboxylate] | 219
5 | CC(O)C1C(=O)N2C(C(=O)O)=C(c3cccc(CO)c3)CC12 (stereo not drawn) [R^a1=H, R^a2=H, R^a3=CH2OH, reference compound] | 0.9
6 | CC(O)C1C(=O)N2C(C(=O)O)=C(c3cccc(C=O)c3)CC12 (stereo not drawn) [R^a1=H, R^a2=H, R^a3=HC=O, reference compound] | 3.3
7 | CC(O)C1C(=O)N2C(C(=O)O)=C(c3ccc(C=O)cc3)CC12 (stereo not drawn) [R^a1=H, R^a2=HC=O, R^a3=H, reference compound] | 2
8 | CC(O)C1C(=O)N2C(C(=O)O)=C(c3ccc(I)cc3)CC12 (stereo not drawn) [R^a1=H, R^a2=I, R^a3=H, reference compound] | 1.8
9 | CC(O)C1C(=O)N2C(C(=O)O)=C(c3cc(I)cc([S+](C)[O-])c3)CC12 [R^a1=I, R^a2=H, R^a3=(S→O)Me, sodium (5R, 6S)-2-[(3-methylsulfinyl)-5-iodophenyl]-6-[(1R)-1-hydroxyethyl]carbapen-2-em-3-carboxylate] | 63
10 | CC(O)C1C(=O)N2C(C(=O)O)=C(c3cccc(I)c3)CC12 (stereo not drawn) [R^a1=I, R^a2=H, R^a3=H, reference compound] | 21
11 | CC(O)C1C(=O)N2C(C(=O)O)=C(c3cc(I)cc(I)c3)CC12 [R^a1=I, R^a2=H, R^a3=I, sodium (5R,6S)-2-[(3,5-diiodo)phenyl]-6-[1R-1-hydroxyethyl]-carbapen-2-em-3-carboxylate] | 88
12 | CSc1cc(I)cc(C2=C(C(=O)O)N3C(=O)C(C(C)O)C3C2)c1 [R^a1=I, R^a2=H, R^a3=SMe, sodium (5R, 6S)-2-[(3-methylthio)-5-iodophenyl]-6-[(1R)-1-hydroxyethyl]carbapen-2-em-3-carboxylate] | 60
13 | CC(O)C1C(=O)N2C(C(=O)O)=C(c3cc(I)cc(S(C)(=O)=O)c3)CC12 (stereo not drawn) [R^a1=I, R^a2=H, R^a3=[drawing]] | 63
14 | CSc1cc(C2=C(C(=O)O)N3C(=O)[C@H]([C@@H](C)O)[C@H]3C2)cc([S+](C)[O-])c1 (stereo partly drawn) [R^a1=SMe, R^a2=H, R^a3=(S→O)Me, sodium (5R,6S)-2-[(3-methylsulfinyl)-(5-methylthio)phenyl]-6-[(1R)-hydroxyethyl]carbapen-2-em-3-carboxylate] | 6.1
15 | CSc1cc(CO)cc(C2=C(C(=O)O)N3C(=O)[C@H]([C@@H](C)O)[C@H]3C2)c1 [R^a1=SMe, R^a2=H, R^a3=CH2OH] | 3.2
16 | CSc1cc(C=O)cc(C2=C(C(=O)O)N3C(=O)[C@H]([C@@H](C)O)[C@H]3C2)c1 [R^a1=SMe, R^a2=H, R^a3=HC=O] | 61
17 | CSc1cc(SC)cc(C2=C(C(=O)O)N3C(=O)C(C(C)O)C3C2)c1 (stereo not drawn) [R^a1=SMe, R^a2=H, R^a3=SMe] | 28
18 | C[C@@H](O)[C@H]1C(=O)N2C(C(=O)O)=C(c3cc(S(C)(=O)=O)cc(S(C)(=O)=O)c3)C[C@H]12 [R^a1=[drawing], R^a2=H, R^a3=[drawing]] | 12
